Here are results for five compounds from patent US7074789B2, “Kinase inhibitors” (Amgen Inc., priority 1999, dated 2006).

Molecules are shown by their SMILES. pIC50: −log10 of the molar value. A value given as a limit tells only on which side of the number the result lay.

Type in all cases: biochemical
One experiment deals with T1, Flt-1 (Homo sapiens, UniProt P17948).
T1 construct: Kinases are expressed as either kinase domains or full length constructs; made in house
The experiment can be described thus: Kinase inhibition assay (33P transfer), Flt-1. In short, it runs like this: (§1)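 Read-out: scintillation counts of 33P moved from ATP onto synthetic peptide polymer coated on the well surface, after washing with 0.5% phosphoric acid. Enzymes were tagged (GST or polyHistidine) and came from bacterial or insect-cell expression. IC50 marks 50% loss of incorporated label.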

For the next experiment, the target named is T2, Src (Homo sapiens, UniProt P12931).
T2 construct: Kinases are expressed as either kinase domains or full length constructs; made in house
The experiment can be described thus: Kinase inhibition assay (33P transfer), Src. The settings on record: Table 6, Src-1 kinase inhibition class. In outline: as §1

The target in another experiment is T3, ErbB4 (Homo sapiens, UniProt Q15303).
T3 construct: Kinases are expressed as either kinase domains or full length constructs; made in house
T3 sequence (Q15303 26-1308, species assumed): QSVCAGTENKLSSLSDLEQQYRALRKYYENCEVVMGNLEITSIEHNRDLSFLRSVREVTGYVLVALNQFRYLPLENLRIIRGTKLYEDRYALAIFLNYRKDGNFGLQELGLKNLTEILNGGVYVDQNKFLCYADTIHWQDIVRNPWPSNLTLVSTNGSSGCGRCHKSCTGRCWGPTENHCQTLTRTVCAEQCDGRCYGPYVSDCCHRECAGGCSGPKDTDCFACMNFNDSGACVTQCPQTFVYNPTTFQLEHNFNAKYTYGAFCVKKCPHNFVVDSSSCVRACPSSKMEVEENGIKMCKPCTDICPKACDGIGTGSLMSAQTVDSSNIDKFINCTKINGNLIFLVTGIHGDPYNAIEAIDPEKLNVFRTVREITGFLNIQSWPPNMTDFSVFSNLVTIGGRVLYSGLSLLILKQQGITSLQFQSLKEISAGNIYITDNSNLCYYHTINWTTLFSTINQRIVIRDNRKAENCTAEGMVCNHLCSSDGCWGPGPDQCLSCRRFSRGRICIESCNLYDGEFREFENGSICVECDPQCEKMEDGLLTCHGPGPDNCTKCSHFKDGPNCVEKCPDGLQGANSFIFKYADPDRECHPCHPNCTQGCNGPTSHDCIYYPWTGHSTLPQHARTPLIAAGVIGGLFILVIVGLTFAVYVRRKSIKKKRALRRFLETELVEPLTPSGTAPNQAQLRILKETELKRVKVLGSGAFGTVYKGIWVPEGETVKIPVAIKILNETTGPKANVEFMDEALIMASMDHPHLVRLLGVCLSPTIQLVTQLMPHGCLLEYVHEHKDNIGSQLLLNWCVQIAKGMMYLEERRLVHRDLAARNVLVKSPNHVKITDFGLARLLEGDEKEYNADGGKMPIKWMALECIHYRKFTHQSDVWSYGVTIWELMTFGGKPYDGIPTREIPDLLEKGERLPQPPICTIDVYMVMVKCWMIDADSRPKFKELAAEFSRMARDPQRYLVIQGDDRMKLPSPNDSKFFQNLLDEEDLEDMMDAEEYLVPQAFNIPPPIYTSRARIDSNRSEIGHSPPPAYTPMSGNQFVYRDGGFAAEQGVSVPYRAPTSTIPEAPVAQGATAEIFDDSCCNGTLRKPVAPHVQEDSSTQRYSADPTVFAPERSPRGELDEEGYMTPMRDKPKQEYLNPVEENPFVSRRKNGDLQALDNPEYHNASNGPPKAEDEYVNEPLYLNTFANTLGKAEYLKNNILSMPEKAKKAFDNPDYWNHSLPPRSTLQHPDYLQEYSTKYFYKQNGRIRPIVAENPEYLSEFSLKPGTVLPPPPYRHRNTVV
The experiment can be described thus: Kinase inhibition assay (33P transfer), ErbB4. The settings on record: read-out: ErbB4-1.

In another experiment the target is T4, AKT (Homo sapiens, UniProt Q9Y243).
T4 construct: Kinases are expressed as either kinase domains or full length constructs; made in house
T4 sequence (Q9Y243 whole entry, the tested form may be a part): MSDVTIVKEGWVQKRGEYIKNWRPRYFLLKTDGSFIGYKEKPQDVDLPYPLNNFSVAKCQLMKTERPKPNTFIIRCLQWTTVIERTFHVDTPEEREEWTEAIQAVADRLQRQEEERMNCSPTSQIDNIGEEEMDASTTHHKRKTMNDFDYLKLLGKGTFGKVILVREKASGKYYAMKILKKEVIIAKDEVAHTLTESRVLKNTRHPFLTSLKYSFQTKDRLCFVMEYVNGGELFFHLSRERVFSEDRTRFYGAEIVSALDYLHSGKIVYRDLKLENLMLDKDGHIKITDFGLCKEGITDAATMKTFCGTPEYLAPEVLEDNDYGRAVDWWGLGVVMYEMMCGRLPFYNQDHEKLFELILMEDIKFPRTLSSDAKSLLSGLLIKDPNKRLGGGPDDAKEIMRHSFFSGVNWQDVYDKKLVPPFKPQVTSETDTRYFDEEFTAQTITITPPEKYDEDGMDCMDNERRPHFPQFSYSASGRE
Put plainly: Kinase inhibition assay (33P transfer), AKT. The settings on record: Table 2, kinase inhibition class; read-out: AKT3-1. In short, it runs like this: (§2)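 Filterless plate radiometric format: immobilized poly(Glu,Tyr) 4:1 or poly(Arg,Ser) 3:1, 33P-labelled ATP, tagged recombinant kinase (some with regulatory partners). Incorporated label counted after phosphoric acid wash.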

A further experiment addresses T5, PDGFRB (Homo sapiens, UniProt P09619).
T5 construct: Kinases are expressed as either kinase domains or full length constructs; made in house
The experiment can be described thus: Kinase inhibition assay (33P transfer), PDGFRB. The settings on record: read-out: PDGFRB-1.

The next experiment concerns the target T6, Lyn (Homo sapiens, UniProt P07948).
T6 construct: Kinases are expressed as either kinase domains or full length constructs; made in house
Put plainly: Kinase inhibition assay (33P transfer), Lyn. The conditions noted are these: Table 6, Lyn-1 kinase inhibition class. In outline:
as §1

The target of another experiment is T7, IGFR-1 (Homo sapiens, UniProt P08069).
T7 construct: Kinases are expressed as either kinase domains or full length constructs; made in house
Put plainly: Kinase inhibition assay, IGFR-1 (Table 2). The conditions noted are these: Table 2, kinase inhibition class.

In another experiment the target is T8, ErbB2 (Homo sapiens, UniProt P04626).
T8 construct: Kinases are expressed as either kinase domains or full length constructs; made in house
T8 sequence (P04626 23-1255, species assumed): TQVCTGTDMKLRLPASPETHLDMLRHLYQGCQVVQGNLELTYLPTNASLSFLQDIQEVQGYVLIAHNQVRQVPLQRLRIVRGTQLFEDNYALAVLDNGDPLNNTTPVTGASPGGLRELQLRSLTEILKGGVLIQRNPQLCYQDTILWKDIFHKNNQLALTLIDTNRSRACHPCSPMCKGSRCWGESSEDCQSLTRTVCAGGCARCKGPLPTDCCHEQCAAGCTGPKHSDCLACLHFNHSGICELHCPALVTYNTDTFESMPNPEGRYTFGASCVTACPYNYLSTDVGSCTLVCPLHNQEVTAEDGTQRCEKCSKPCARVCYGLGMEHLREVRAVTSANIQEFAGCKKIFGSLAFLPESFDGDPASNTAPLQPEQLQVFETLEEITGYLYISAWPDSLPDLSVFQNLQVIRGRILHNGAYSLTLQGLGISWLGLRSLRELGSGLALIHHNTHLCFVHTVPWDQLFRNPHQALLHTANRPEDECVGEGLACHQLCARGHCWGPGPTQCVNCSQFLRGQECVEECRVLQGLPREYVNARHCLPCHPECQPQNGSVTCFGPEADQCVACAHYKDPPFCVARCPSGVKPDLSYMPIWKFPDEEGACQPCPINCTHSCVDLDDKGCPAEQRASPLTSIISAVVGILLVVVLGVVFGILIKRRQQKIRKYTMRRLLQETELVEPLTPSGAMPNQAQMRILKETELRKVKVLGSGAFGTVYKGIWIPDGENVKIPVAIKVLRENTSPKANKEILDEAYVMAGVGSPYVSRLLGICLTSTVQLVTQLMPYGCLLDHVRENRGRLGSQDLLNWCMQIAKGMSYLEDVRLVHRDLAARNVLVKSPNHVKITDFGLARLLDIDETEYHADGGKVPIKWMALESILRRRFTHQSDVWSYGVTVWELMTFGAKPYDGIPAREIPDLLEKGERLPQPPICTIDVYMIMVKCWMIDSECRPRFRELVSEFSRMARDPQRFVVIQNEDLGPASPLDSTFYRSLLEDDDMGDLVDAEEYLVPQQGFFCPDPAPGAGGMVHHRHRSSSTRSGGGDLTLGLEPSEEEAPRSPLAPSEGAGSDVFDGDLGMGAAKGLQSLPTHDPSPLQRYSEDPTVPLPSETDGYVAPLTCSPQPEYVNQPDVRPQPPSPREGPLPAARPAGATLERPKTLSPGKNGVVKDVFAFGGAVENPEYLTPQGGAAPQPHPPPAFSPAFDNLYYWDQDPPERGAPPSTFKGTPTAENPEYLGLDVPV
Put plainly: Kinase inhibition assay (33P transfer), ErbB2. The conditions noted are these: read-out: ErbB2-2. In short, it runs like this: as §1

For another experiment, the target named is T9, FGFR1 (Homo sapiens, UniProt P11362).
T9 construct: Kinases are expressed as either kinase domains or full length constructs; made in house
Put plainly: Kinase inhibition assay (33P transfer), FGFR1. The conditions noted are these: read-out: FGFR1-1.

The next experiment addresses T10, Tek (Homo sapiens, UniProt Q02763).
T10 construct: Kinases are expressed as either kinase domains or full length constructs; made in house
The experiment can be described thus: Kinase inhibition assay (33P transfer), Tek. The settings on record: read-out: Tek-1. In short, it runs like this:
as §1

The target in the next experiment is T11, Kdr (Homo sapiens, UniProt P35968).
T11 construct: Kinases are expressed as either kinase domains or full length constructs; made in house
The experiment can be described thus: Kinase inhibition assay (33P transfer), Kdr. The conditions noted are these: read-out: KDR-1. In short, it runs like this: as §2

The target of another experiment is T12, Itk (Homo sapiens, UniProt Q08881).
T12 construct: Kinases are expressed as either kinase domains or full length constructs; made in house
T12 sequence (Q08881 1-620): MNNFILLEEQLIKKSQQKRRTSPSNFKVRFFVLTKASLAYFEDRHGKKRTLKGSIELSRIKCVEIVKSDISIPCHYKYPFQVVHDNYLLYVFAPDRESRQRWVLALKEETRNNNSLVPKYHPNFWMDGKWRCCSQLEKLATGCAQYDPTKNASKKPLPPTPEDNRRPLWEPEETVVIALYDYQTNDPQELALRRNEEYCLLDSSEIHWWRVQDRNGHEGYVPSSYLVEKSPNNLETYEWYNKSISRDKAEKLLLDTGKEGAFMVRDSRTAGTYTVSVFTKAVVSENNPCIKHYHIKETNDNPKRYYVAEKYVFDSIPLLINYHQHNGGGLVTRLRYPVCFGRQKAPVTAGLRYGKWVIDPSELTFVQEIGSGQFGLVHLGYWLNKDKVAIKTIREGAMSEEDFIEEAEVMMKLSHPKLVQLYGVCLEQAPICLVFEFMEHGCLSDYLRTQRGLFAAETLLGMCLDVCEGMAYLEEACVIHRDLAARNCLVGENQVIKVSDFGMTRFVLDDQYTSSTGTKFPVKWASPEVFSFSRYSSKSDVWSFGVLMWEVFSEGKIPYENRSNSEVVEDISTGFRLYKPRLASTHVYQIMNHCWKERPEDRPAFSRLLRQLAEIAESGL
Put plainly: Kinase inhibition assay (33P transfer), Itk. The settings on record: read-out: Itk-1. In short, it runs like this: as §1

The target of a further experiment is T13, Hck-1 (Homo sapiens, UniProt P08631).
T13 construct: Kinases are expressed as either kinase domains or full length constructs; made in house
T13 sequence (P08631 whole entry, the tested form may be a part): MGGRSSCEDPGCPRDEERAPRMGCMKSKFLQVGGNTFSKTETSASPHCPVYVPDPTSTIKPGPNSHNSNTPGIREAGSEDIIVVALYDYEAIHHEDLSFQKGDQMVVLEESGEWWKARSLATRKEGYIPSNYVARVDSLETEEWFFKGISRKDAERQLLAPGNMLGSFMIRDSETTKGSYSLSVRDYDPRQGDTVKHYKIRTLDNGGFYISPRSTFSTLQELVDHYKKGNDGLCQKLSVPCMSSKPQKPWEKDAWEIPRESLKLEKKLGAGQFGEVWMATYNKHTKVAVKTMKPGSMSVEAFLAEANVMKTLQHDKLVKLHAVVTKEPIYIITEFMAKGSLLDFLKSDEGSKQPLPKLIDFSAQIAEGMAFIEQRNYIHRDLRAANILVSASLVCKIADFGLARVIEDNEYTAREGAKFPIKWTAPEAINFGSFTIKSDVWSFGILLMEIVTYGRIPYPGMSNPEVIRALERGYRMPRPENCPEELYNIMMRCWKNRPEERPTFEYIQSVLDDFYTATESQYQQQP
The experiment can be described thus: Kinase inhibition assay (33P transfer), Hck. The settings on record: Table 6, Hck-1 kinase inhibition class.

For the next experiment, the target named is T14, Fyn (Homo sapiens, UniProt P06241).
T14 construct: Kinases are expressed as either kinase domains or full length constructs; made in house
Put plainly: Kinase inhibition assay (33P transfer), Fyn. The settings on record: read-out: Fyn-1. In short, it runs like this: as §1

The target of a further experiment is T15, Lck (Homo sapiens, UniProt P06239).
T15 construct: Kinases are expressed as either kinase domains or full length constructs; made in house
T15 sequence (P06239 whole entry, species assumed, the tested form may be a part): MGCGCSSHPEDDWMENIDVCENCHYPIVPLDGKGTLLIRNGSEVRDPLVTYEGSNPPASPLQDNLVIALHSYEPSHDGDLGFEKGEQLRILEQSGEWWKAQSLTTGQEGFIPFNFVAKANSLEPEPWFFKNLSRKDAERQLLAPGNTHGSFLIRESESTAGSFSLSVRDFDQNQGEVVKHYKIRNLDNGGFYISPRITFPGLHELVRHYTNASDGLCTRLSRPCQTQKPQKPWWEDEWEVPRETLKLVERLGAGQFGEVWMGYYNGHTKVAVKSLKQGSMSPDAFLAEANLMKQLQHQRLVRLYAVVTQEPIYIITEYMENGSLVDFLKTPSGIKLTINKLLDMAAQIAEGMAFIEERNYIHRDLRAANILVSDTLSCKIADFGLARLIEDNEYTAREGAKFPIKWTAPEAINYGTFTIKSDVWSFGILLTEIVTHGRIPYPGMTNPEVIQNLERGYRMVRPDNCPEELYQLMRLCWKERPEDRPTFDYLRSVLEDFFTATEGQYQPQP
Put plainly: Kinase inhibition assay (33P transfer), Lck. The conditions noted are these: read-out: Lck-1. In short, it runs like this:
as §2

The target of the next experiment is T16, Ret-1 (Homo sapiens, UniProt P07949).
T16 construct: Kinases are expressed as either kinase domains or full length constructs; made in house
The experiment can be described thus: Kinase inhibition assay (33P transfer), Ret. The settings on record: Table 6, Ret-1 kinase inhibition class.

Another experiment has as its target T17, c-Met (Homo sapiens, UniProt P08581).
T17 construct: Kinases are expressed as either kinase domains or full length constructs; made in house
Put plainly: Kinase inhibition assay (33P transfer), c-Met. The conditions noted are these: Table 2, kinase inhibition class; read-out: Met-1. In short, it runs like this:
as §1

The target in the next experiment is T18, EGFR (Homo sapiens, UniProt P00533).
T18 construct: Kinases are expressed as either kinase domains or full length constructs; made in house
Put plainly: Kinase inhibition assay (33P transfer), EGFR. The conditions noted are these: Table 2, kinase inhibition class; read-out: EGFR-1. In short, it runs like this: as §1

The target of the next experiment is T19, Zap-70 (Homo sapiens, UniProt P43403).
T19 construct: Kinases are expressed as either kinase domains or full length constructs; made in house
T19 sequence (P43403 1-619): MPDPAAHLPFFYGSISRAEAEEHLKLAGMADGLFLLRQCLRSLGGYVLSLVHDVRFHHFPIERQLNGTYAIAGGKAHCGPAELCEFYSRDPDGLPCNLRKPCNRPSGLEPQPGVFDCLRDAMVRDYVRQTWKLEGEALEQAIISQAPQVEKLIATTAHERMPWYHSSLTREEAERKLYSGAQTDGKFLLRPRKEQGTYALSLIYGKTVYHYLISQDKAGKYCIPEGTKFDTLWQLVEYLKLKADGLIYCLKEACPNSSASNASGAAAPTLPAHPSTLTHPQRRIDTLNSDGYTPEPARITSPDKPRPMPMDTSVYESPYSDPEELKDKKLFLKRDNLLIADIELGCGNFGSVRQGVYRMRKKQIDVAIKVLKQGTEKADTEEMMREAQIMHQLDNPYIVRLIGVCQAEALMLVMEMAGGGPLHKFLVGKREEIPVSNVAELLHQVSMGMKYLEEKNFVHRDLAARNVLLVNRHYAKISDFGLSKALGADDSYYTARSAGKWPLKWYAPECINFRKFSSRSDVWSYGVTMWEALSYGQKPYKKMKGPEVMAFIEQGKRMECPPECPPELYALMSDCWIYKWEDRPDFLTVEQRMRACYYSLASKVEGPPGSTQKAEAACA
Put plainly: Kinase inhibition assay (33P transfer), Zap-70. The conditions noted are these: read-out: Zap-1. In short, it runs like this:
as §2

T5 sequence (P09619 33-1106, species assumed): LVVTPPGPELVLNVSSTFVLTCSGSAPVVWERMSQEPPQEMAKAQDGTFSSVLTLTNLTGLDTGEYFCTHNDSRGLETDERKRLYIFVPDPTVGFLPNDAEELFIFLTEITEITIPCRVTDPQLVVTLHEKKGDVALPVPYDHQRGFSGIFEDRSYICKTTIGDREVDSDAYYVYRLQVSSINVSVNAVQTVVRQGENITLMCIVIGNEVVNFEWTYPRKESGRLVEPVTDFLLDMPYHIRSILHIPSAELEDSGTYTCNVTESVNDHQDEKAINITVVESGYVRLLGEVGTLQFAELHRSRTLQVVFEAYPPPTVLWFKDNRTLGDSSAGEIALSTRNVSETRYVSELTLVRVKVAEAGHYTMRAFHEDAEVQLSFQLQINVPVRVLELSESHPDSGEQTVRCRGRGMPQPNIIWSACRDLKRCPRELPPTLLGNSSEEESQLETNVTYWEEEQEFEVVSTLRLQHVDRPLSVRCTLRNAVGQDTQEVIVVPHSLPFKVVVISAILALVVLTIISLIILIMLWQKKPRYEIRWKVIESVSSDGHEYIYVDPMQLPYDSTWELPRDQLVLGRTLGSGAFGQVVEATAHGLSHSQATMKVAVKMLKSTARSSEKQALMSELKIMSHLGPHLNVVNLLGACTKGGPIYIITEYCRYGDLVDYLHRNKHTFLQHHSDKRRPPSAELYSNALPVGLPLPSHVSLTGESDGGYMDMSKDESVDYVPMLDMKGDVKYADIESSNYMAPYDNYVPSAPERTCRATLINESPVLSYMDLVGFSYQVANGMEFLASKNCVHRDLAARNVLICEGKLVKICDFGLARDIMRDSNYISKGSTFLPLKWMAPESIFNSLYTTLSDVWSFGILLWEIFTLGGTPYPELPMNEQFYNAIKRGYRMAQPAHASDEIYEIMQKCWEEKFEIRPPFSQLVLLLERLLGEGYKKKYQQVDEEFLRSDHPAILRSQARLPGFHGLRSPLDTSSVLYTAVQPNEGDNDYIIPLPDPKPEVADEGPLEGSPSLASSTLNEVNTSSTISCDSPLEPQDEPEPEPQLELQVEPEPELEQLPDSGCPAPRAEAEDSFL

Consider `COc1cc(Nc2ncnc(Nc3cccc4ccccc34)n2)cc(OCCN2CCOCC2)c1OC` [Compound 953], for which the pIC50 was 5.32 to 6.10 at Flt-1; above 6.10 against Src; 5.32 to 6.10 at ErbB4; below 5.05 at AKT; above 6.10 on PDGFRB; above 6.10 against Lyn. Further, the pIC50 at IGFR-1 was 5.16 to 5.32; at ErbB2, 5.32 to 6.10; on FGFR1, 5.32 to 6.10; on Tek it was 5.32 to 6.10; on Kdr, 5.32 to 6.10; at Itk it was 5.05 to 5.16. In addition, the pIC50 against Hck-1 was 5.32 to 6.10; at Fyn, above 6.10; on Lck it was above 6.10; at Ret-1 it was 5.32 to 6.10; at c-Met, below 5.05; on EGFR it was above 6.10. Besides, at Zap-70, the pIC50 is below 5.05.
Regarding `COc1cc(Nc2ncnc(-n3c(NCc4cccc(F)c4)nc4ccccc43)n2)cc(OC)c1OC` [Compound 513], the pIC50 is above 6.10 at Flt-1; 5.05 to 5.16 against Src; 5.16 to 5.32 at ErbB4; below 5.05 on AKT; above 6.10 on PDGFRB; 5.32 to 6.10 against Lyn. Further, the pIC50 was 5.05 to 5.16 at IGFR-1; 5.05 to 5.16 on ErbB2; above 6.10 on FGFR1; below 5.05 on Tek; above 6.10 at Kdr; below 5.05 on Itk. Also, the pIC50 against Hck-1 is below 5.05; on Fyn, 5.05 to 5.16; at Lck, 5.32 to 6.10; on Ret-1 it was above 6.10; on c-Met, below 5.05; at EGFR, 5.05 to 5.16. The pIC50 on Zap-70 is below 5.05.
As to `COc1cc(Nc2ncnc(Nc3ccc4c(cnn4Cc4ccccc4)c3)n2)cc(OC)c1OC` [Compound 177], the pIC50 at Flt-1 is 5.30 to 6.08; at Src, above 6.08; at ErbB4, above 6.08; on AKT, 5.14 to 5.30; at PDGFRB, above 6.08; at Lyn it was above 6.08. Further, the pIC50 on IGFR-1 is 5.30 to 6.08; at ErbB2, above 6.08; at FGFR1 it was 5.14 to 5.30; on Tek it was 5.30 to 6.08; at Kdr, 5.30 to 6.08; on Itk, 5.03 to 5.14. Moreover, the pIC50 on Hck-1 was 5.30 to 6.08; on Fyn, above 6.08; on Lck, above 6.08; at Ret-1, above 6.08; at c-Met it was 5.30 to 6.08; at EGFR, above 6.08. Also, the pIC50 at Zap-70 was 5.14 to 5.30.
On to `COc1cc(Nc2ncnc(N3c4ccccc4CCC3C)n2)cc(OC)c1OC` (centres unmarked) [Compound 612], for which the pIC50 was above 6.01 against Flt-1; 5.23 to 6.01 at Src; 5.23 to 6.01 at ErbB4; below 4.96 on AKT; 5.23 to 6.01 on PDGFRB; 5.23 to 6.01 against Lyn. In addition, the pIC50 against IGFR-1 is 5.07 to 5.23; at ErbB2, 5.23 to 6.01; on FGFR1, above 6.01; on Tek, 5.23 to 6.01; on Kdr it was above 6.01; at Itk, 5.23 to 6.01. Besides, the pIC50 is 4.96 to 5.07 at Hck-1; 5.23 to 6.01 on Fyn; above 6.01 on Lck; 5.23 to 6.01 at Ret-1; above 6.01 at c-Met; 5.23 to 6.01 at EGFR. For the same compound, the pIC50 at Zap-70 was 4.96 to 5.07.
In the case of `COc1cc(Nc2ncnc(-n3c(NCc4cccc(C)c4)nc4ccccc43)n2)cc(OC)c1OC` [Compound 515], the pIC50 was 5.32 to 6.09 on Flt-1; below 5.04 at Src; below 5.04 on ErbB4; below 5.04 on AKT; above 6.09 at PDGFRB; below 5.04 against Lyn. Also, the pIC50 was below 5.04 against IGFR-1; below 5.04 on ErbB2; above 6.09 at FGFR1; 5.04 to 5.15 at Tek; above 6.09 on Kdr; below 5.04 at Itk. Besides, the pIC50 on Hck-1 was below 5.04; at Fyn, below 5.04; at Lck, above 6.09; on Ret-1 it was above 6.09; on c-Met it was below 5.04; on EGFR, below 5.04. Besides, the pIC50 at Zap-70 was below 5.04.
